# Measurements: patent US12691070B2, “Cationic lipids and preparation method thereof” (RiboX Therapeutics HK Limited, priority 2023, dated 2026)
# Tests used:
# [1] = LNP size and polydispersity index (PDI) by dynamic light scattering; assay type: physicochemical; settings: for Size: in nm (unit assumed)
# Method in brief: (§1)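 Ribogreen fluorescence with and without Triton X-100 gave encapsulation as 100% − (intact/lysed) signal; DLS size, PDI and zeta potential measured on a Zetasizer. Particles: 50:10:38.5:1.5 lipid mix, luciferase circRNA or mRNA, lipid:nucleotide 15 or 6, microfluidic assembly at pH 4.5, PBS-dialyzed.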
# [2] = LNP zeta potential (Zetasizer); assay type: physicochemical
# Method in brief: as §1
# [3] = RNA encapsulation efficacy by Quant-IT Ribogreen kit; assay type: physicochemical; settings: for Encapsulation Efficiency %: LNP with cirRNA (SEQ ID NO: 1); for Encapsulation Efficiency: LNP with mRNA (SEQ ID NO: 2)
# Method in brief: as §1
# Hep G2 cells [4] = test: In vitro expression of firefly-luciferase, Hep G2; assay type: cell-based
# Method in brief: (§2)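 Luminescence from cell lysates reports expression: luciferase activity was measured 72 h after transfection with 100 ng/mL RNA-LNPs encoding firefly luciferase.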
# RAW 264.7 cells [5] = test: In vitro expression of firefly-luciferase, RAW 264.7; assay type: cell-based
# Method in brief: as §2
# Hep G2 cells [6] = test: In vitro toxicity (CellTiter-Glo cell viability), Hep G2; assay type: cell-based;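 also: percent of untreated cells luminescence signal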
# Method in brief: (§3)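 Viability after a 72 h incubation with 1 μg/mL RNA-LNP formulations was assessed luminometrically using CellTiter-Glo.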
# RAW 264.7 cells [7] = test: In vitro toxicity (CellTiter-Glo cell viability), RAW 264.7; assay type: cell-based;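 also: percent of untreated cells luminescence signal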
# Method in brief: as §3
# BALB/C mice [8] = test: In vivo expression, whole-body luminescence (IVIS)
# Protocol: 6-8 week old, female BALB/C mice were injected with 0.05 mg*kg-1 of RNA-LNPs encoding for firefly-luciferase by intravenous injection. At 6 hours post injection, animals were intraperitoneally injected with 15 mg/ml of Luciferin substrate and whole-body luminescence was determined by a bioluminescent in vivo imaging system (IVIS).
# MCP-I = MCP-I cytokine elevation in serum; assay type: in vivo; settings: cirRNA (SEQ ID NO: 1) LNPs, mice
# Protocol: 6-8 week old, female BALB/C mice were injected with 0.5 mg*kg-1 of RNA LNPs by intravenous injection. At 2 and 24 hours post injection, animals were bled and sera concentrations of MCP-I were determined by an immunoassay (Luminex).
# [9] = system: Alanine Aminotransferase (ALT); test: Liver enzyme elevation in serum, ALT; assay type: in vivo; settings: cirRNA (SEQ ID NO: 1) LNPs, BALB/C mice, intravenous 0.5 MPK
# Protocol: (§4) 6-8 week old, female BALB/C mice were injected with 0.5 mg*kg-1 of RNA LNPs by intravenous injection. At 2 and 24 hours post injection, animals were bled and sera concentrations of Alanine Aminotransferase (ALT) and Aspartate Aminotransferase (AST) were determined by a blood chemistry analyzer.
# [10] = system: Aspartate Aminotransferase (AST); test: Liver enzyme elevation in serum, AST; assay type: in vivo; settings: cirRNA (SEQ ID NO: 1) LNPs, BALB/C mice, intravenous 0.5 MPK
# Protocol: as §4
# BALB/C mice [11] = test: Local tolerance determination by footpad injection; assay type: in vivo; settings: cirRNA (SEQ ID NO: 1) LNP, 0.175 mg*kg-1 subcutaneous into the footpad, 24 hours post minus prior
# Protocol: 6-8 week old, female BALB/C mice were injected with 0.175 mg*kg-1 RNA LNPs by subcutaneous injection into the footpad. Prior to, and 24 hours post injections, injected footpad thickness was determined by a caliper.
# [12] = cirRNA (SEQ ID NO: 1) LNPs, firefly-luciferase luminescence, Hep G2 cells
# [13] = mRNA (SEQ ID NO: 2) LNP, 100 ng/mL, 72 hours post transfection, luciferase activity
# [14] = cirRNA (SEQ ID NO: 1) LNPs, firefly-luciferase luminescence, RAW 264.7 cells
# [15] = cirRNA (SEQ ID NO: 1) LNPs, Hep G2 cells
# [16] = mRNA (SEQ ID NO: 2) LNP, 1 μg/mL, 72 hours post transfection
# [17] = cirRNA (SEQ ID NO: 1) LNPs, RAW 264.7 cells
# [18] = cirRNA (SEQ ID NO: 1) LNPs, BALB/C mice
# [19] = mRNA (SEQ ID NO: 2) LNP, 0.05 mg*kg-1 intravenous, 6 hours post injection
SMILES,PDI ([1]; LNP with cirRNA (SEQ ID NO: 1)),Size ([1]; LNP with cirRNA (SEQ ID NO: 1)),PDI ([1]; LNP with mRNA (SEQ ID NO: 2)),Size ([1]; LNP with mRNA (SEQ ID NO: 2)),Zeta (mV) ([2]; LNP with cirRNA (SEQ ID NO: 1)),Zeta (mV) ([2]; LNP with mRNA (SEQ ID NO: 2)),Encapsulation Efficiency % [3],Encapsulation Efficiency [3],In vitro Expression HepG2 (Hep G2 cells [4]; [12]),In vitro Expression HepG2 (Hep G2 cells [4]; [13]),In vitro Expression RAW (RAW 264.7 cells [5]; [14]),In vitro Expression RAW (RAW 264.7 cells [5]; [13]),In vitro Viability HepG2 (Hep G2 cells [6]; [15]),In vitro Viability HepG2 (Hep G2 cells [6]; [16]),In vitro Viability RAW (RAW 264.7 cells [7]; [17]),In vitro Viability RAW (RAW 264.7 cells [7]; [16]),In vivo Expression (Whole Body) (BALB/C mice [8]; [18]),In vivo Expression (Whole Body) (BALB/C mice [8]; [19]),MCP-I in Sera 2 hours After 0.5 MPK Injection (MCP-I),MCP-I in Sera 24 hours After 0.5 MPK Injection (MCP-I),also measured
"CCCCCCCCC(CCCCCCCC)OC(=O)CCCCCCCN(CCCCCCCCOC(=O)C(CCCCCC)CCCCCCCC)CCOC(=O)NCCN1CCCC1 (stereo not shown) [Lipid 148, 8-((8-(heptadecan-9-yloxy)-8-oxooctyl)(2-(((2-(pyrrolidin-1-yl)ethyl)carbamoyl)oxy)ethyl)amino)octyl 2-hexyldecanoate]",0.03,93.46,0.07065,122.1,−2.35 mV,3.769 mV,95%,93.50%,2.35E+06,6.39E+02,2.40E+05,8.69E+05,47%,128%,21%,102%,5.07E+08,1.69E+09,6709.61 pg/mL,69.59 pg/mL,"ALT in Sera (IU/L) 2 hours After 0.5 MPK Injection [9]: 53.60 IU/L; ALT in Sera (IU/L) 24 hours After 0.5 MPK Injection [9]: 59.93 IU/L; AST in Sera (IU/L) 2 hours After 0.5 MPK Injection [10]: 136.17 IU/L; AST in Sera (IU/L) 24 hours After 0.5 MPK Injection [10]: 108.13 IU/L; Footpad Thickness (24 h−0 h, mm) (BALB/C mice [11]): 0.23 mm"
"CCCCCCCCC(CCCCCC)C(=O)OCCCCCCCCN(CCCCCCCCOC(=O)C(CCCCCC)CCCCCCCC)CCOC(=O)NCCN(C)C (stereo not shown) [Lipid 6, 10-(8-((2-hexyldecanoyl)oxy)octyl)-2-methyl-6-oxo-7-oxa-2,5,10-triazaoctadecan-18-yl 2-hexyldecanoate]",0.06,87.2,0.03302,106.5,−2.24 mV,4.201 mV,96%,93.16%,1.82E+08,2.28E+08,1.11E+07,1.21E+07,89%,113%,100%,77%,1.21E+09,1.91E+09,7009.50 pg/mL,1653.42 pg/mL,"ALT in Sera (IU/L) 2 hours After 0.5 MPK Injection [9]: 99.33 IU/L; ALT in Sera (IU/L) 24 hours After 0.5 MPK Injection [9]: 181.67 IU/L; AST in Sera (IU/L) 2 hours After 0.5 MPK Injection [10]: 316.00 IU/L; AST in Sera (IU/L) 24 hours After 0.5 MPK Injection [10]: 411.00 IU/L; Footpad Thickness (24 h−0 h, mm) (BALB/C mice [11]): 0.44 mm"
"CCCCC/C=C\C/C=C\CCCCCCCCN(CCCCCCCC(=O)OC(CCCCCCCC)CCCCCCCC)CCOC(=O)NCCN1CCCCC1 [Lipid 127, heptadecan-9-yl 8-(((9Z,12Z)-octadeca-9,12-dien-1-yl)(2-(((2-(piperidin-1-yl)ethyl)carbamoyl)oxy)ethyl)amino)octanoate]",0.04,71.42,0.1822,57.31,−3.13 mV,−1.439 mV,95%,87%,2.14E+06,1.75E+06,4.87E+06,5.53E+05,99%,100%,76%,109%,1.14E+09,8.69E+07,301.91 pg/mL,128.65 pg/mL,"ALT in Sera (IU/L) 2 hours After 0.5 MPK Injection [9]: 74.17 IU/L; ALT in Sera (IU/L) 24 hours After 0.5 MPK Injection [9]: 54.90 IU/L; AST in Sera (IU/L) 2 hours After 0.5 MPK Injection [10]: 161.17 IU/L; AST in Sera (IU/L) 24 hours After 0.5 MPK Injection [10]: 91.53 IU/L; Footpad Thickness (24 h−0 h, mm) (BALB/C mice [11]): 0.94 mm"
"CCCCC/C=C\C/C=C\CCCCCCCCN(CCCCCCCC(=O)OC(CCCCCCCC)CCCCCCCC)CCOC(=O)NCCN(C)C [Lipid 129, heptadecan-9-yl 2-methyl-10-((9Z,12Z)-octadeca-9,12-dien-1-yl)-6-oxo-7-oxa-2,5,10-triazaoctadecan-18-oate]",0.08,88.9,0.1768,55.55,0.417 mV,0.5475 mV,96%,90%,8.56E+06,7.03E+06,8.78E+06,1.11E+06,79%,100%,7%,97%,1.69E+09,1.42E+08,3830.40 pg/mL,272.54 pg/mL,"ALT in Sera (IU/L) 2 hours After 0.5 MPK Injection [9]: 64.50 IU/L; ALT in Sera (IU/L) 24 hours After 0.5 MPK Injection [9]: 67.87 IU/L; AST in Sera (IU/L) 2 hours After 0.5 MPK Injection [10]: 188.97 IU/L; AST in Sera (IU/L) 24 hours After 0.5 MPK Injection [10]: 112.03 IU/L; Footpad Thickness (24 h−0 h, mm) (BALB/C mice [11]): 1.09 mm"
